Experimental data: patent publication EP3556767A1, “CELL PENETRATING PEPTIDES” (Universidade De Santiago De Compostela, priority 2018, dated 2019)
Where a SMILES comes first, the peptide text is derived from it. The star is where a group is joined. 5TAMRA = CN(C)c1ccc2c(c1)Oc1cc(N(C)C)ccc1C21OC(=O)c2cc(C(=O)*)ccc21; X1 = O=C(CON=CCO[C@H]1O[C@H](CO)[C@@H](O)[C@H](O)[C@@H]1O)*; X2 = CC(C)=NOCC(=O)*; Ahx = NCCCCCC(=O)O

What was measured:
[1] = system: HeLa cells; assay: Viability in the presence of saporin (MTT); format: cell-based; details: up to 30 µM, 1 h incubation, Figure 9
Description: Saporin (253 aa, 28 kDa) is a toxic protein from the group of the ribosome-inactivating proteins (RIP), which is not capable of reaching the cytosol by itself, although it can be passively internalized by pinocytosis if it is found in the culture medium, being retained in endosomes. Incubation of the cells with this protein in the presence of an endosomolytic agent causes the release of the protein to the cytosol and cell death.
For the experiment, HeLa cells were incubated in a 96-well plate with 10 µg/mL of saporin, and increasing concentrations of the P8 and R8 acetylated peptides.
The cells were co-incubated with the protein and peptide for 1 h in culture medium without serum or antibiotics, at which time the compounds were removed, washed and complete medium was added for 6 h, to allow the maturation of the endosomes and the escape of the toxin. At that time, MTT (tetrazolium salt) was added, cells were further incubated for 3 h, and the medium removed before solubilizing the formazan salt with DMSO. This viability test measures the reduction of MTT to formazan by mitochondrial activity, which can then be quantified by absorbance.

[2] = system: HeLa cells; assay: Cell transport experiments (fluorescence microscopy, co-localization); format: cell-based; details: for transport of ConA: ConA labelled with Alexa Fluor-647
Description: HeLa cells growing on four chamber glass bottom dishes were washed with HEPES-Krebs-Ringer (HKR) buffer (5 mM HEPES, 137 mM NaCl, 2.68 mM KCI, 2.05 mM MgCl2, 1.8 mM CaCl2, pH 7.4) and nuclei were stained by incubation with 1 µM Hoechst 33342 in HKR for 30 min. The CPP and protein were diluted in HKR and incubated for 7 min at room temperature to allow the formation of the complexes. Cells were washed with HKR and incubated with the complexes for another 30 min. Cells were washed again to remove excess peptide before performing epifluorescence microscopy using a Nikon Eclipse Ti-E inverted microscope or confocal microscopy with a Leica SP5 microscope. Images were analyzed with ImageJ and the co-localization parameters (Manders coefficients) were calculated using the Coloc2 plugin selecting the Costes method of threshold regression.

[3] = system: endosomes; assay: Dextran escape from endosomes; format: cell-based; details: dextran 250 µg/ml; Figure 11
Description: Dextran is a polysaccharide (in this case labeled with a green fluorescent probe) known to internalize cells through the endocytic pathway. Thus, if the CPPs of the invention are capable of inducing release of dextrane from endosomes into the cytosol, the cell will display diffuse green fluorescence. The experiment was run by incubating dextran (250 µg/ml) in the presence of 5 µM of a CPP: (i) P8 marked with TAMRA, (ii) acetylated P8, and (iii) R8 as comparison.

[4] = system: HeLa cells stably transfected with a plasmid carrying the LoxP-DsRED-STOP-LoxP-eGFP insert; assay: Cre recombinase protein cytosolic delivery (Cre Reporter system); format: cell-based; details: 1 µM Cre recombinase protein
Description: In order to further test the capabilities of the CPPs of the invention to release macromolecules into the cytosol, a Cre recombinase delivery assay was done in the presence of P8. HeLa cells stably transfected with a plasmid carrying the LoxP-DsRED-STOP-LoxP-eGFP insert (Cre Reporter system) were incubated with 1 µM Cre recombinase protein and CPPs P8 or R8 at different concentrations.
These cells express normally the dsRED protein (red fluorescence), but when the Cre recombinase protein removes the dsRED ORF by recombination, the eGFP gene (green fluorescence) is expressed instead. Thus, the percentage of cells expressing eGFP can be used as a measure of the percentage of cells where the Cre Recombinase had been effectively released into the cytosol.

[5] = Circular dichroism, percentage of helicity; format: physicochemical; details: 40°C; for % Helicity in Liposomes: egg yolk phosphatidylcholine liposomes
Description: Circular Dichroism (CD) measurements were performed with a Jasco J-1100 CD Spectrometer equipped with a Jasco MCB-100 Mini Circulation Bath for temperature control.
Circular dichroism measurements were carried out with the following settings: acquisition range: 300-190 nm; band width: 1.0 nm; accumulation: 3 scans; data pitch: 1 nm; CD scale 200 mdeg/1.0 dOD; D.I.T. (Data Integration Time): 1 s; scanning mode: continuous; scanning speed: 200 nm/min. Measurements were done from 10 °C to 60 °C (data interval: 10 °C; temp. gradient 5 °C/min) in a quartz cell of 0.2 cm path length at a final volume of 0.5 mL (H2O or TFE) with a final peptide concentration of 200 µM.
The results are expressed as the mean residue molar ellipticity [θ]MRt with units of degrees·cm^2.dmol^-1 and calculated using the equation S1.
The percentage of helicity was calculated using the equation S2. For the measurements in liposomes, samples were prepared by drying under reduced pressure L-α-phosphatidylcholine (16.7 µL, 25 mg/mL solution in CHCl3) and peptide (300 µL, 100 µM) in TFE to obtain a ratio lipid/peptide of 18:1 in a 10 mL round bottomed flask. The mixture was concentrated in a rotary evaporator to dryness, forming a film. The lipid/peptide mixture were suspended in HKR buffer (300 µL) to a final peptide concentration 100µM and sonicated for 45 min until a clear solution was obtained. Spectra were recorded in a 0.2 cm path length quartz cell. [formula]
Equation S1: Formula to calculate the ellipticity. θ is the ellipticity (mdeg), C is the peptide concentration (M) and I is the cell path length (cm). helicity % = (θMRt222nm−2340)/(30300) × 100 [formula]
Equation S2: Formula to calculate the percent of helicity in where the molar ellipticity at 222 nm is an absolute value.

[6] = system: HeLa cells; assay: Quantification of the uptake by flow cytometry; format: cell-based; details: TAMRA labelled peptides, 1, 3, 5, 7, 10 µM; Figure 3
Description: For internalization standard assays we measured the amount of peptide fluorescence in cells by flow cytometry. Briefly, semiconfluent monolayers of HeLa cells seeded the day before were washed twice with HKR before incubation with different concentrations (1, 3, 5, 7, 10 µM) of TAMRA labelled peptides diluted in cell culture medium without serum for 1 hour at 37 °C . Then, cells were trypsinized with 100 µL of Trypsin-EDTA (Gibco) for 10 min at 37 °C, and trypsin neutralized with 100 µL of 2 % FBS in PBS with 5 mM EDTA. Pipetting broke cell clumps and the analysis was done in a Guava easyCyte™ cytometer. TAMRA levels were determined by excitation at 532 nm and detection at 575/25 nm. For the analysis, cells with typical FSC and SSC parameters were selected, and median fluorescence intensity was calculated for each sample. Data analysis was performed with InCyte software included in GuavaSoft 3.2 (Millipore).
The results of uptake of CPP P8 in HeLa, A-549 and SF9 are depicted in Figure 5: Uptake quantification by flow cytometry in three different cell lines: HeLa cells, A549 cells and Sf9 cells. Data points were collected in triplicate at six different concentrations (0, 1, 3, 5, 7, 10 µM). Cells were treated in DMEM (-) (HeLa, A549), or Sf-900-II (-) (Sf9) for 1 hour prior to trypsinization and cytometry quantification. Error bars indicate SD of three replicates.

[7] = co-localization of peptide and ConA

With CC(C)C[C@H](NC(=O)c1ccc2c(c1)C(=O)OC21c2ccc(N(C)C)cc2Oc2cc(N(C)C)ccc21)C(=O)N[C@@H](CCCNC(=N)N)C(=O)N[C@@H](C)C(=O)N[C@@H](CC(C)C)C(=O)N[C@@H](C)C(=O)N[C@@H](C)C(=O)N[C@@H](CC(C)C)C(=O)N[C@@H](C)C(=O)N[C@@H](CCCNC(=N)N)C(=O)N[C@@H](C)C(=O)N[C@@H](C)C(=O)N[C@@H](C)C(=O)N[C@@H](C)C(=O)N[C@@H](C)C(=O)N[C@@H](C)C(=O)N[C@@H](CCCNC(=N)N)C(N)=O [P8, TmL R ALAALA R A6 R] (5TAMRA-LRALAALARAAAAAAR-NH2) the “toxicity to HeLa cells, peptide alone” value [1] was “little or no toxicity”.
For CC(C)=NOCC(=O)NCCCC[C@H](NC(=O)[C@H](CCCNC(=N)N)NC(=O)CCCCCNC(=O)c1ccc2c(c1)C(=O)OC21c2ccc(N(C)C)cc2Oc2cc(N(C)C)ccc21)C(=O)N[C@@H](CC(C)C)C(=O)N[C@@H](CCCNC(=N)N)C(=O)N[C@@H](CCCNC(=N)N)C(=O)N[C@@H](CC(C)C)C(=O)N[C@@H](CC(C)C)C(=O)N[C@@H](CCCNC(=N)N)C(=O)N[C@@H](CCCNC(=N)N)C(=O)N[C@@H](CC(C)C)C(=O)N[C@@H](CCCCNC(=O)CON=C(C)C)C(=O)N[C@@H](CCCNC(=N)N)C(=O)N[C@@H](CC(C)C)C(N)=O [TmP(Acetone)2, reference compound] ({5TAMRA-Ahx}-RK(X2)LRRLLRRLK(X2)RL-NH2), the “transport of ConA” value [2] was “did not complex or transport ConA”.
With CC(C)C[C@H](NC(=O)[C@H](CCCNC(=N)N)NC(=O)[C@H](CCCCNC(=O)CON=CCO[C@H]1O[C@H](CO)[C@@H](O)[C@H](O)[C@@H]1O)NC(=O)[C@H](CC(C)C)NC(=O)[C@H](CCCNC(=N)N)NC(=O)[C@H](CCCNC(=N)N)NC(=O)[C@H](CC(C)C)NC(=O)[C@H](CC(C)C)NC(=O)[C@H](CCCNC(=N)N)NC(=O)[C@H](CCCNC(=N)N)NC(=O)[C@H](CC(C)C)NC(=O)[C@H](CCCCNC(=O)CON=CCO[C@H]1O[C@H](CO)[C@@H](O)[C@H](O)[C@@H]1O)NC(=O)[C@H](CCCNC(=N)N)NC(=O)CCCCCNC(=O)c1ccc2c(c1)C(=O)OC21c2ccc(N(C)C)cc2Oc2cc(N(C)C)ccc21)C(N)=O [TmP(Man)2] ({5TAMRA-Ahx}-RK(X1)LRRLLRRLK(X1)RL-NH2) the “transport of ConA” value [2] was “the ConA cellular uptake was observed”, the “Manders coefficients (peptide and protein co-localization)” value ([2]; approximate value given in the text) was ~0.6 and the “Manders' tM1 (Peptide)” value [2, 7] was 0.66. For the same compound, the “Manders' tM2 (Protein)” value [2, 7] was 0.63.
In the case of “Ac-LRALAALARAAAAAAR-NH2 [acetylated P8, AcL R ALAALA R A6 R]”, the “concentration at which the peptide starts to release the dextran into the cytosol” value [3] is reported as 10 µM, the “peptide concentration at the maximum percentage of eGFP expressing cells” value [4] is reported as 10 µM and the “maximum percentage of eGFP expressing cells” value ([4]; Figure 10) is reported as 35%.
With TmHexA R AALLAA R AALA3 R [P3] the “% Helicity in water” value [5] was 21.7% and the “% Helicity in Liposomes” value [5] was 12.7%.
With TmHexA R ALAALA R ALA4 R [P6] the “% Helicity in water” value [5] was 35.1%, the “% Helicity in Liposomes” value [5] was 29.9% and the “uptake in living HeLa cells” value [6] was “perform better in the uptake test”.
With TmHexL R A5L R A5L R [P5] the “% Helicity in water” value [5] was 19.3%, the “% Helicity in Liposomes” value [5] was 29.5% and the “uptake in living HeLa cells” value [6] was “perform better in the uptake test”.
